Data on 5 compounds can be found in patent publication US20090215882A1, “LYOPHILIZED SOLID TAXANE COMPOSITION, A PROCESS FOR PREPARING SAID SOLID COMPOSITION, A PHARMACEUTICAL FORMULATION AND A KIT FOR SAID FORMULATION” (ERIOCHEM, S.A., priority 2006, published 2009).

Data set [1] can be described thus: Apparent density of the lyophilizate. It counts as physicochemical. To be noted: intermediate lyophilized taxane (first lyophilization from organic solvent). The source says: The apparent density of the lyophilizate is defined as the quotient between the mass of the lyophilization cake in grams and its volume in milliliters.
The apparent density of the lyophilizates has been carefully assessed, and after a great number of experiments the apparent density values in which the technical effects of the invention are possible such as easy reconstitution of said solid composition of lyophilized taxane in an aqueous solution free from organic solvent were obtained. […] In other words, the lower the apparent density of the lyophilization cake, the fastest its dissolution. Also, if the apparent density of the solid composition of lyophilized taxane of the present invention is very low, the concentration of the tensoactive is not enough to maintain said taxane in solution, and said taxane precipitates rapidly.

Data set [2] in a line: Solubility / dissolution in aqueous solutions without organic solvent. It counts as physicochemical. The conditions noted are these: for dissolution of the intermediate lyophilized taxane in aqueous Solutol HS15 solution: aqueous Solutol HS15 mixture with excipient (mannitol/citric acid or povidone), no organic solvent. As to the method:
The intermediate lyophilized taxane is dissolved in aqueous solutions of polymers or a mixture of said polymers, namely Lutrol™ F68, Solutol™ HS15, povidone K12 PF or K17 PF.

For data set [3] the following is noted: estimated by the World Health Organization; cited from earlier work.
Data set [4] can be described thus: Chemical degradation of docetaxel in aqueous tensoactive solution. In kind it is physicochemical. The conditions noted are these: pH maintained at values higher than 6.
The conditions of data set [5]: after administration to mammals, compared to polysorbates; cited from earlier work.

Take `CC(=O)O[C@@]12CO[C@@H]1C[C@H](O)[C@@]1(C)C(=O)[C@H](O)C3=C(C)[C@@H](OC(=O)[C@H](O)[C@@H](NC(=O)OC(C)(C)C)c4ccccc4)C[C@@](O)([C@@H](OC(=O)c4ccccc4)[C@H]21)C3(C)C` [Example 2, docetaxel]: the apparent density in data set [1] is 0.014 g/mL. Further, in data set [2], the “dissolution of the intermediate lyophilized taxane in aqueous Solutol HS15 solution” value was “readily dissolved”.

On to polysorbate 80, for which, in data set [3], the maximum daily dose is recorded as 25 mg/kg of body weight.

On to `CC(=O)O[C@@]12CO[C@@H]1C[C@H](O)[C@@]1(C)C(=O)[C@H](O)C3=C(C)[C@@H](OC(=O)[C@H](O)[C@@H](NC(=O)OC(C)(C)C)c4ccccc4)C[C@@](O)([C@@H](OC(=O)c4ccccc4)[C@H]21)C3(C)C` [Example 1, docetaxel], for which the apparent density in data set [1] amounted to 0.025 g/mL. The “dissolution of the intermediate lyophilized taxane in aqueous Solutol HS15 solution” value in data set [2] is given as “readily dissolved”.

For the compound `CC(=O)O[C@@]12CO[C@@H]1C[C@H](O)[C@@]1(C)C(=O)[C@H](O)C3=C(C)[C@@H](OC(=O)[C@H](O)[C@@H](NC(=O)OC(C)(C)C)c4ccccc4)C[C@@](O)([C@@H](OC(=O)c4ccccc4)[C@H]21)C3(C)C` [docetaxel], the “degradation to 7-epidocetaxel” value in data set [4] is not above 60%. For the same compound, the “solubility in aqueous solutions” value in data set [2] (commercially available API, absence of added organic solvents) is recorded as “not soluble”.

In the case of “Polyethylene glycol-15-hydroxystearate [Solutol HS15]”, in data set [5], the histaminic release entry is given as “very low histaminic release”.
